The test system of assay [1] is Monocotyledonous and dicotyledonous test plants. Briefly: Post-emergence herbicidal action, greenhouse pot test, sprayed at the 2- to 3-leaf stage, 9-level rating after 2 to 3 weeks. It counts as in vivo. On the set-up: key: 9-level scale: 1 = complete damage, 9 = no effect. Conditions: 250 g/ha, rated after 2 to 3 weeks, 9-level scale. The method, boiled down: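 Plants grown in standard soil in pots; test substances sprayed at the 2- to 3-leaf stage at optimum dosage (500 l water/ha) as aqueous suspension or emulsion from formulated concentrates. Plants then kept in the greenhouse under optimum conditions; rated after 2 to 3 weeks on a 9-level scale (1=complete damage, 9=no effect).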

For assay [2] the test system is unchanged. Briefly: Herbicidal action before emergence of the plants (pre-emergence action), greenhouse pot test, 9-level rating after 4 weeks. Conditions: 250 g/ha, rated after 4 weeks, 9-level scale. It is filed as in vivo. On the set-up: key: 9-level scale: 1 = complete damage, 9 = no effect. Here is the method: Herbicidal Action Before Emergence of the Plants (Pre-Emergence Action)
Monocotyledonous and dicotyledonous test plants are sown in standard soil in pots. Immediately after sowing, the test substances are sprayed on at an optimum dosage (500 l of water/ha) as an aqueous suspension (prepared from a wettable powder (example F3, b) according to WO 97/34485) or emulsion (prepared from an emulsion concentrate (example F1, c) according to WO 97/34485). The test plants are then grown under optimum conditions in a greenhouse.
After a test period of 4 weeks, the test is evaluated using a 9-level scale of ratings (1=complete damage, 9=no effect). Ratings of 1 to 4 (in particular 1 to 3) mean good to very good herbicidal action.

Consider `COCCOCc1nc(C(F)(F)F)ccc1C(=O)C1=C(O)C2CCC(C2)C1=O` (stereo not drawn) [A10-B52, (H3), 4-Hydroxy-3-[2-(2-methoxyethoxymethyl)-6-trifluoromethylpyridine-3-carbonyl]-bicyclo[3.2.1]oct-3-en-2-one], for which, in assay [1], the “Post-emergence action rating, Abutilon” value was determined as 1; the “Post-emergence action rating, Amaranth” value was determined as 2; the “Post-emergence action rating, Chenop.” value was 1; the “Post-emergence action rating, Digitaria” value was 1. Moreover, in assay [1], the “Post-emergence action rating, Echino.” value was 2; the “Post-emergence action rating, Ipopur.” value is on record as 2; the “Post-emergence action rating, Panicum” value is on record as 1; the “Post-emergence action rating, Xanth.” value amounted to 2. Further, in assay [2], the “Pre-emergence action rating, Abutilon” value is given as 1; the “Pre-emergence action rating, Amaranthus” value was 1; the “Pre-emergence action rating, Chenop.” value is 1; the “Pre-emergence action rating, Digitaria” value came to 1. Also, in assay [2], the “Pre-emergence action rating, Echino.” value is 1 and the “Pre-emergence action rating, Panicum” value came to 1.

Turning to `C#CCOCc1nc(C(F)(F)F)ccc1C(=O)C1=C(O)C2CCC(C2)C1=O` (stereo not drawn) [A18-B52], in assay [1], the “Post-emergence action rating, Abutilon” value is 1; the “Post-emergence action rating, Amaranth” value is listed as 1; the “Post-emergence action rating, Chenop.” value was 1; the “Post-emergence action rating, Digitaria” value is recorded as 1. Moreover, in assay [1], the “Post-emergence action rating, Echino.” value turned out to be 2; the “Post-emergence action rating, Ipopur.” value was 2; the “Post-emergence action rating, Panicum” value stood at 1; the “Post-emergence action rating, Xanth.” value was found to be 2. In assay [2], the “Pre-emergence action rating, Abutilon” value turned out to be 2; the “Pre-emergence action rating, Amaranthus” value is given as 2; the “Pre-emergence action rating, Digitaria” value is recorded as 1; the “Pre-emergence action rating, Echino.” value is recorded as 1. In addition, the “Pre-emergence action rating, Panicum” value in assay [2] was 1.

As for `O=C(C1=C(O)C2CCC(C2)C1=O)c1ccc(C(F)(F)F)nc1COC1COC1` (stereo not drawn) [A24-B52], in assay [1], the “Post-emergence action rating, Abutilon” value was found to be 2; the “Post-emergence action rating, Amaranth” value turned out to be 2; the “Post-emergence action rating, Chenop.” value was determined as 1; the “Post-emergence action rating, Digitaria” value was 2. Moreover, in assay [1], the “Post-emergence action rating, Echino.” value was 2; the “Post-emergence action rating, Ipopur.” value turned out to be 2; the “Post-emergence action rating, Panicum” value came out at 2; the “Post-emergence action rating, Xanth.” value was 2. Moreover, in assay [2], the “Pre-emergence action rating, Abutilon” value is reported as 1; the “Pre-emergence action rating, Amaranthus” value is listed as 1; the “Pre-emergence action rating, Chenop.” value is reported as 1; the “Pre-emergence action rating, Digitaria” value is 1. Also, in assay [2], the “Pre-emergence action rating, Echino.” value was found to be 1 and the “Pre-emergence action rating, Panicum” value worked out at 1.

`CCOCc1nc(C(F)(F)F)ccc1C(=O)c1cnn(C)c1O` [A2-C5]: in assay [1], the “Post-emergence action rating, Abutilon” value is on record as 2; the “Post-emergence action rating, Amaranth” value is on record as 1; the “Post-emergence action rating, Chenop.” value turned out to be 1; the “Post-emergence action rating, Digitaria” value is reported as 2. In assay [1], the “Post-emergence action rating, Echino.” value was found to be 2; the “Post-emergence action rating, Ipopur.” value is 2; the “Post-emergence action rating, Panicum” value was 1; the “Post-emergence action rating, Xanth.” value amounted to 2. In assay [2], the “Pre-emergence action rating, Abutilon” value was 1; the “Pre-emergence action rating, Amaranthus” value is 1; the “Pre-emergence action rating, Chenop.” value is on record as 1; the “Pre-emergence action rating, Digitaria” value is reported as 2. For the same molecule, in assay [2], the “Pre-emergence action rating, Echino.” value is on record as 2 and the “Pre-emergence action rating, Panicum” value is 1.

For `C#CCCOCc1nc(C(F)(F)F)ccc1C(=O)C1=C(O)C2CCC(C2)C1=O` (stereo not drawn) [A836-B52], in assay [1], the “Post-emergence action rating, Abutilon” value is reported as 2; the “Post-emergence action rating, Amaranth” value was determined as 2; the “Post-emergence action rating, Chenop.” value amounted to 1; the “Post-emergence action rating, Digitaria” value amounted to 2. Also, in assay [1], the “Post-emergence action rating, Echino.” value is listed as 2; the “Post-emergence action rating, Ipopur.” value is listed as 3; the “Post-emergence action rating, Panicum” value stood at 2; the “Post-emergence action rating, Xanth.” value turned out to be 3. Further, in assay [2], the “Pre-emergence action rating, Abutilon” value amounted to 5; the “Pre-emergence action rating, Amaranthus” value was found to be 2; the “Pre-emergence action rating, Chenop.” value is recorded as 3; the “Pre-emergence action rating, Digitaria” value amounted to 2. In addition, in assay [2], the “Pre-emergence action rating, Echino.” value amounted to 1 and the “Pre-emergence action rating, Panicum” value is 1.

Consider `COCCOCc1c(C(=O)C2=C(O)C3CCC(C3)C2=O)ccc(C(F)(F)F)[n+]1[O-]` (stereo not drawn) [A736-B52], for which, in assay [1], the “Post-emergence action rating, Abutilon” value is on record as 1; the “Post-emergence action rating, Amaranth” value is reported as 1; the “Post-emergence action rating, Chenop.” value came out at 1; the “Post-emergence action rating, Digitaria” value was 1. Moreover, in assay [1], the “Post-emergence action rating, Echino.” value amounted to 2; the “Post-emergence action rating, Ipopur.” value is reported as 2; the “Post-emergence action rating, Panicum” value came out at 1; the “Post-emergence action rating, Xanth.” value was determined as 2. Also, in assay [2], the “Pre-emergence action rating, Abutilon” value came out at 1; the “Pre-emergence action rating, Amaranthus” value is 1; the “Pre-emergence action rating, Chenop.” value was 1; the “Pre-emergence action rating, Digitaria” value came out at 4. In assay [2], the “Pre-emergence action rating, Echino.” value is on record as 2 and the “Pre-emergence action rating, Panicum” value worked out at 1.

With `COCCOCc1nc(C(F)(F)Cl)ccc1C(=O)C1=C(O)C2CCC(C2)C1=O` (stereo not drawn) [A556-B52], in assay [1], the “Post-emergence action rating, Abutilon” value came to 1; the “Post-emergence action rating, Amaranth” value is recorded as 2; the “Post-emergence action rating, Chenop.” value stood at 1; the “Post-emergence action rating, Digitaria” value was determined as 2. Besides, in assay [1], the “Post-emergence action rating, Echino.” value was 2; the “Post-emergence action rating, Ipopur.” value is listed as 2; the “Post-emergence action rating, Panicum” value amounted to 1; the “Post-emergence action rating, Xanth.” value is reported as 2. Further, in assay [2], the “Pre-emergence action rating, Abutilon” value is on record as 1; the “Pre-emergence action rating, Amaranthus” value was found to be 2; the “Pre-emergence action rating, Chenop.” value was 1; the “Pre-emergence action rating, Digitaria” value is reported as 1. Besides, in assay [2], the “Pre-emergence action rating, Echino.” value turned out to be 1 and the “Pre-emergence action rating, Panicum” value is given as 1.

Regarding `C=CCOCc1nc(C(F)(F)F)ccc1C(=O)C1=C(O)C2CCC(C2)C1=O` (stereo not drawn) [A19-B52], in assay [1], the “Post-emergence action rating, Abutilon” value stood at 1; the “Post-emergence action rating, Amaranth” value was 1; the “Post-emergence action rating, Chenop.” value is reported as 1; the “Post-emergence action rating, Digitaria” value was 1. Besides, in assay [1], the “Post-emergence action rating, Echino.” value is 2; the “Post-emergence action rating, Ipopur.” value is 1; the “Post-emergence action rating, Panicum” value amounted to 1; the “Post-emergence action rating, Xanth.” value was 2. Moreover, in assay [2], the “Pre-emergence action rating, Abutilon” value is given as 1; the “Pre-emergence action rating, Amaranthus” value came out at 2; the “Pre-emergence action rating, Digitaria” value was determined as 1; the “Pre-emergence action rating, Echino.” value turned out to be 1. The “Pre-emergence action rating, Panicum” value in assay [2] was determined as 1.

As for `O=C(C1=C(O)C2CCC(C2)C1=O)c1ccc(C(F)(F)F)nc1COCCCl` (stereo not drawn) [A850-B52], in assay [1], the “Post-emergence action rating, Abutilon” value was found to be 2; the “Post-emergence action rating, Amaranth” value is given as 2; the “Post-emergence action rating, Chenop.” value came to 1; the “Post-emergence action rating, Digitaria” value is 2. In addition, in assay [1], the “Post-emergence action rating, Echino.” value is given as 2; the “Post-emergence action rating, Ipopur.” value is given as 2; the “Post-emergence action rating, Panicum” value was 2; the “Post-emergence action rating, Xanth.” value came out at 2. Besides, in assay [2], the “Pre-emergence action rating, Abutilon” value is listed as 1; the “Pre-emergence action rating, Amaranthus” value is 2; the “Pre-emergence action rating, Chenop.” value was 1; the “Pre-emergence action rating, Digitaria” value stood at 2. In assay [2], the “Pre-emergence action rating, Echino.” value came to 1 and the “Pre-emergence action rating, Panicum” value was 1.

As for `O=C(C1=C(O)C2CCC(C2)C1=O)c1ccc(C(F)(F)F)nc1COC1COCOC1` (stereo not drawn) [A851-B52], in assay [1], the “Post-emergence action rating, Abutilon” value is on record as 3; the “Post-emergence action rating, Amaranth” value was 2; the “Post-emergence action rating, Chenop.” value is reported as 1; the “Post-emergence action rating, Digitaria” value was found to be 3. Moreover, in assay [1], the “Post-emergence action rating, Echino.” value came out at 4; the “Post-emergence action rating, Ipopur.” value amounted to 3; the “Post-emergence action rating, Panicum” value was found to be 3; the “Post-emergence action rating, Xanth.” value came to 3. Also, in assay [2], the “Pre-emergence action rating, Abutilon” value turned out to be 1; the “Pre-emergence action rating, Amaranthus” value is recorded as 1; the “Pre-emergence action rating, Chenop.” value amounted to 1; the “Pre-emergence action rating, Digitaria” value was determined as 1. Further, in assay [2], the “Pre-emergence action rating, Echino.” value is on record as 1 and the “Pre-emergence action rating, Panicum” value is on record as 1.

The values are drawn from US7378375B1, “Substituted pyridine herbicides” (Syngenta Crop Protection, Inc., priority 2000, dated 2008).
